Data from patent publication US10894784B2, “Heteroarylbenzimidazole compounds” (BAYER PHARMA AKTIENGESELLSCHAFT, priority 2015, dated 2021).
pIC50: −log10 of the molar value.

Target: TBK1 (Homo sapiens (Human), UniProt Q9UHD2)
Assay: TBK1 low ATP kinase assay (in vitro assay 1)
Format: biochemical
Conditions: in vitro assay 1, read-out: TBK1 low ATP kinase assay IC50

Sequence of TBK1 (Q9UHD2 whole entry): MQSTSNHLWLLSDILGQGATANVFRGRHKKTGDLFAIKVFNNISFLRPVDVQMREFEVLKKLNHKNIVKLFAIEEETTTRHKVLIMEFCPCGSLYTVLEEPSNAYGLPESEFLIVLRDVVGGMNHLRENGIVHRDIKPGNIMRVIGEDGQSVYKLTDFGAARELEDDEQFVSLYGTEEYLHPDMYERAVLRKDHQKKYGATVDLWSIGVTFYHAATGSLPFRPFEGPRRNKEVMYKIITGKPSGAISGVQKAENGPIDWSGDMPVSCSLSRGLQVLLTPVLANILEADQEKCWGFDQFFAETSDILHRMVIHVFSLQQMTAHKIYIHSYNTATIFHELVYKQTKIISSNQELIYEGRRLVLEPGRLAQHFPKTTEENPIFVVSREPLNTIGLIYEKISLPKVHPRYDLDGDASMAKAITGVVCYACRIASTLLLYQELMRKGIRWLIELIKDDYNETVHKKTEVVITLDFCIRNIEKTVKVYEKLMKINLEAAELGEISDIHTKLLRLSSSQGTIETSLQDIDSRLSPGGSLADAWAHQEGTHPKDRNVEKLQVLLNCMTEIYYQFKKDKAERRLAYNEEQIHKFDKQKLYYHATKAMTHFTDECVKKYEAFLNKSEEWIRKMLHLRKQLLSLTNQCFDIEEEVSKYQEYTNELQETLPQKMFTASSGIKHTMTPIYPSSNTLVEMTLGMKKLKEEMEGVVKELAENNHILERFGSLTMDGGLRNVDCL

## O=C(C1CC1)N1CCN(Cc2ccnc(Nc3nc4ccc(-c5ccnc(OCC6CC6)n5)cc4[nH]3)c2)CC1 [Example 62.01.04, cyclopropyl(4-{[2-({6-[2-(cyclopropylmethoxy)pyrimidin-4-yl]-1H-benzimidazol-2-yl}amino)pyridin-4-yl]methyl}piperazin-1-yl)methanone]
  pIC50: 8.28

## CN(CC1CC1)c1cc(-c2ccc3nc(Nc4cc(CN5CCN(C(=O)C6CC6)CC5)ccn4)[nH]c3c2)ncn1 [Example 141.03, cyclopropyl[4-({2-[(6-{6-[(cyclopropylmethyl)(methyl)amino]pyrimidin-4-yl}-1H-benzimidazol-2-yl)amino]pyridin-4-yl}methyl)piperazin-1-yl]methanone]
  pIC50: 7.89

## Cc1cc(-c2ccc3nc(Nc4cc(C(C)N5CCN(C(=O)OC(C)(C)C)CC5)ccn4)[nH]c3c2)n(C)n1 (single isomer, unassigned) [Example 89.01, tert-butyl 4-[(1R or 1S)-1-(2-{[6-(1,3-dimethyl-1H-pyrazol-5-yl)-1H-benzimidazol-2-yl]amino}pyridin-4-yl)ethyl]piperazine-1-carboxylate]
  pIC50: 6.21

## CCNc1cc(-c2ccc3nc(Nc4cc(CN5CCN(C(=O)C6CC6)CC5)ccn4)[nH]c3c2)ncn1 [Example 149.03, cyclopropyl(4-{[2-({6-[6-(ethylamino)pyrimidin-4-yl]-1H-benzimidazol-2-yl}amino)pyridin-4-yl]methyl}piperazin-1-yl)methanone]
  pIC50: 8.64

## O=C(C1CC1)N1CCN(Cc2ccnc(Nc3nc4ccc(-c5ccnc(N6CCOCC6)c5)cc4[nH]3)c2)CC1 [Example 134.03, cyclopropyl(4-{[2-({6-[2-(morpholin-4-yl)pyridin-4-yl]-1H-benzimidazol-2-yl}amino)pyridin-4-yl]methyl}piperazin-1-yl)methanone]
  pIC50: 7.72

## Cc1noc(-c2ccc3nc(Nc4cc(CN5C[C@@H](C)N(C(=O)CC(F)(F)F)C[C@@H]5C)ccn4)[nH]c3c2)n1 [Example 16.02.02, 1-{(2R,5S)-2,5-dimethyl-4-[(2-{[6-(3-methyl-1,2,4-oxadiazol-5-yl)-1H-benzimidazol-2-yl]amino}pyridin-4-yl)methyl]piperazin-1-yl}-3,3,3-trifluoropropan-1-one]
  pIC50: 6.47

## Cc1cc(-c2ccc3nc(Nc4cc(C(C)N5CCN(C(=O)CC(F)(F)F)CC5)ccn4)[nH]c3c2Cl)ncn1 (single isomer, unassigned) [Example 98.02, 1-{4-[(1R or 1S)-1-(2-{[7-chloro-6-(6-methylpyrimidin-4-yl)-1H-benzimidazol-2-yl]amino}pyridin-4-yl)ethyl]piperazin-1-yl}-3,3,3-trifluoropropan-1-one]
  pIC50: 7.36

## Cc1nccc(-c2ccc3nc(Nc4cc(C(C)N5CCN(C(=O)CC6CC6)CC5)ccn4)[nH]c3c2)n1 (single isomer, unassigned) [Example 24.05.03.A, 2-cyclopropyl-1-{4-[(1R or 1S)-1-(2-{[6-(2-methylpyrimidin-4-yl)-1H-benzimidazol-2-yl]amino}pyridin-4-yl)ethyl]piperazin-1-yl}ethanone]
  pIC50: 7.34

## CSc1cc(-c2ccc3nc(Nc4cc(CN5CCN(C(=O)CC(F)(F)F)CC5)ccn4)[nH]c3c2)ncn1 [Example 95.01, 3,3,3-trifluoro-1-(4-{[2-({6-[6-(methylsulfanyl)pyrimidin-4-yl]-1H-benzimidazol-2-yl}amino)pyridin-4-yl]methyl}piperazin-1-yl)propan-1-one]
  pIC50: 8.18

## Cc1noc(-c2ccc3nc(Nc4cc(CN5CCN(C(=O)c6cccs6)CC5)ccn4)[nH]c3c2)n1 [Example 101.24, {4-[(2-{[6-(3-methyl-1,2,4-oxadiazol-5-yl)-1H-benzimidazol-2-yl]amino}pyridin-4-yl)methyl]piperazin-1-yl}(thiophen-2-yl)methanone]
  pIC50: 6.80

## Cc1cc(-c2ccc3nc(Nc4cc(C(C)N5CCN(C(=O)CC(F)(F)F)CC5)ccn4)[nH]c3c2F)ncn1 (single isomer, unassigned) [Example 172.02, 3,3,3-trifluoro-1-{4-[(1R or 1S)-1-(2-{[7-fluoro-6-(6-methylpyrimidin-4-yl)-1H-benzimidazol-2-yl]amino}pyridin-4-yl)ethyl)piperazin-1-yl}propan-1-one]
  pIC50: 7.92

## Cc1cc(-c2ccc3nc(Nc4cc(CN5CCN(C(=O)C6CC6)CC5)ccn4)[nH]c3c2)ncn1 [Example 30.01.04, cyclopropyl{4-[(2-{[6-(6-methylpyrimidin-4-yl)-1H-benzimidazol-2-yl]amino}pyridin-4-yl)methyl]piperazin-1-yl}methanone]
  pIC50: 7.91

## CN(C)c1cc(-c2ccc3nc(Nc4cc(CN5CCN(C(=O)OC(C)(C)C)CC5)ccn4)[nH]c3c2)ncn1 [Example 143.01, tert-butyl 4-{[2-({6-[6-(dimethylamino)pyrimidin-4-yl]-1H-benzimidazol-2-yl}amino)pyridin-4-yl]methyl}piperazine-1-carboxylate]
  pIC50: 7.74

## CC(c1ccnc(Nc2nc3ccc(-c4cc(N5CCOCC5)ncn4)cc3[nH]2)c1)N1CCN(C(=O)OC(C)(C)C)CC1 (single isomer, unassigned) [Example 118.01, tert-butyl 4-{(1R or 1S)-1-[2-({6-[6-(morpholin-4-yl)pyrimidin-4-yl]-1H-benzimidazol-2-yl}amino)pyridin-4-yl]ethyl}piperazine-1-carboxylate]
  pIC50: 8.10

## CC(c1ccnc(Nc2nc3ccc(-c4cnn(CC5CC5(F)F)c4)cc3[nH]2)c1)N1CCN(C(=O)CC(F)(F)F)CC1 (single isomer, unassigned) [Example 55.02.02, 1-{4-[(1R or 1S)-1-(2-{[6-(1-{[(1R or IS)-2,2-difluorocyclopropyl]methyl}-1H-pyrazol-4-yl)-1H-benzimidazol-2-yl]amino}pyridin-4-yl)ethyl]piperazin-1-yl}-3,3,3-trifluoropropan-1-one]
  pIC50: 8.89

## COc1cncnc1-c1ccc2nc(Nc3cc(CN4CCN(C(=O)N5CCOCC5)CC4)ccn3)[nH]c2c1 [Example 35.01.07, {4-[(2-{[6-(5-methoxypyrimidin-4-yl)-1H-benzimidazol-2-yl]amino}pyridin-4-yl)methyl]piperazin-1-yl}(morpholin-4-yl)methanone]
  pIC50: 7.11

## O=C(CC(F)(F)F)N1CCN(Cc2ccnc(Nc3nc4ccc(-c5ccnc(N6CCOCC6)c5)cc4[nH]3)c2)CC1 [Example 134.02, 3,3,3-trifluoro-1-(4-{[2-({6-[2-(morpholin-4-yl)pyridin-4-yl]-1H-benzimidazol-2-yl}amino)pyridin-4-yl]methyl}piperazin-1-yl)propan-1-one]
  pIC50: 7.96

## CC(c1ccnc(Nc2nc3ccc(-c4cc(C(F)(F)F)ncn4)c(F)c3[nH]2)c1)N1CCN(C(=O)C2(C(F)(F)F)CC2)CC1 (single isomer, unassigned) [Example 173.04, (4-{(1R or 1S)-1-[2-({7-fluoro-6-[6-(trifluoromethyl)pyrimidin-4-yl]-1H-benzimidazol-2-yl}amino)pyridin-4-yl]ethyl}piperazin-1-yl)[1-(trifluoromethyl)cyclopropyl]methanone]
  pIC50: 6.83

## CC(C)(C)OC(=O)N1CCN(Cc2ccnc(Nc3nc4ccc(-c5cc(OCC6CCC6)ncn5)cc4[nH]3)c2)CC1 [Example 159.01, tert-butyl 4-{[2-({6-[6-(cyclobutylmethoxy)pyrimidin-4-yl]-1H-benzimidazol-2-yl}amino)pyridin-4-yl]methyl}piperazine-1-carboxylate]
  pIC50: 6.51

## CC(C)Cc1noc(-c2ccc3nc(Nc4cc(CN5CCN(C(=O)C6CC6)CC5)ccn4)[nH]c3c2)n1 [Example 18.02, cyclopropyl(4-{[2-({6-[3-(2-methylpropyl)-1,2,4-oxadiazol-5-yl]-1H-benzimidazol-2-yl}amino)pyridin-4-yl]methyl}piperazin-1-yl)methanone]
  pIC50: 6.81

## CC(c1ccnc(Nc2nc3ccc(-c4cc(N5CCC5)ncn4)cc3[nH]2)c1)N1CCN(C(=O)CC(F)(F)F)CC1 (single isomer, unassigned) [Example 115.02, 1-(4-{(1R or 1S)-1-[2-({6-[6-(azetidin-1-yl)pyrimidin-4-yl]-1H-benzimidazol-2-yl}amino)pyridin-4-yl]ethyl}piperazin-1-yl)-3,3,3-trifluoropropan-1-one]
  pIC50: 9.12

## COc1c(C)ncnc1-c1ccc2nc(Nc3cc(C(C)N4CCN(C(=O)CC(F)(F)F)CC4)ccn3)[nH]c2c1 (single isomer, unassigned) [Example 83.03, 3,3,3-trifluoro-1-{4-[(1R or 1S)-1-(2-{[6-(5-methoxy-6-methylpyrimidin-4-yl)-1H-benzimidazol-2-yl]amino}pyridin-4-yl)ethyl]piperazin-1-yl}propan-1-one]
  pIC50: 8.66

## O=C(C1CC1)N1CCN(Cc2ccnc(Nc3nc4ccc(-c5nc(C6CCCC6)no5)cc4[nH]3)c2)CC1 [Example 19.01, {4-[(2-{[6-(3-cyclopentyl-1,2,4-oxadiazol-5-yl)-1H-benzimidazol-2-yl]amino}pyridin-4-yl)methyl]piperazin-1-yl}(cyclopropyl)methanone]
  pIC50: 6.38

## O=C(CC(F)(F)F)N1CCN(Cc2ccnc(Nc3nc4ccc(-c5ccnc(C(F)F)c5)cc4[nH]3)c2)CC1 [Example 139.02, 1-(4-{[2-({6-[2-(difluoromethyl)pyridin-4-yl]-1H-benzimidazol-2-yl}amino)pyridin-4-yl]methyl}piperazin-1-yl)-3,3,3-trifluoropropan-1-one]
  pIC50: 7.82

## O=C(CC(F)(F)F)N1CCN(Cc2ccnc(Nc3nc4ccc(-c5ncnc6sccc56)cc4[nH]3)c2)CC1 [Example 105.01, 3,3,3-trifluoro-1-{4-[(2-{[6-(thieno[2,3-d]pyrimidin-4-yl)-1H-benzimidazol-2-yl]amino}pyridin-4-yl)methyl]piperazin-1-yl}propan-1-one]
  pIC50: 6.57

## CCOc1cnc(C)cc1-c1ccc2nc(Nc3cc(CN4CCN(C(=O)CC(F)(F)F)CC4)ccn3)[nH]c2c1 [Example 09.01, 1-{4-[(2-{[6-(5-ethoxy-2-methylpyridin-4-yl)-1H-benzimidazol-2-yl]amino}pyridin-4-yl)methyl]piperazin-1-yl}-3,3,3-trifluoropropan-1-one]
  pIC50: 6.60
